The values below come from patent publication US7838275B2, “Anti-HIV and anti-tumor peptides and fragments of lysozyme” (priority 2000, dated 2010).

Read-outs that look alike come from different tables or passages of the source. Peptide text beside a SMILES is read from it.

For test [1], the system named is HHV8 infected cells of AIDS patients with Kaposi's sarcoma.
In a further test the test system is HIV-1. The method, then:
Human lysozyme (2 mg) was treated with clostripain (10 units, Sigma) in 400 μl of Tris buffer, pH7.6 at 37° C. for 24 h. The digest was resolved by reversed phase chromatography on a ProRPC column (Hr5/10). […] The fractions were assayed for anti-HIV activity by p24 production in HIV-1 infected ACH2 T lymphocytes as described in Lee-Huang et al. (1999).

In the case of “Lysozyme: Human lysozyme, whole molecule”, the EC50 in test [1] (read-out: Anti-KS EC50, Table 4) turned out to be 54 nM; with HIV-1 (read-out: Anti-HIV EC50) it was 50 nM; in the test with HIV-1 (read-out: Anti-HIV activity (EC50)) it was 50 nM; in the test with HIV-1 (read-out: anti-HIV EC50 (50% inhibition concentration)), 55 nM.
Turning to RVVRDPQGIRAWVAYRNR [HL18 (W112-Y)], in the test on HIV-1, the “Anti-HIV activity (EC50)” value is “No Anti-HIV”.
Take RVVRDPQGI [HL18-N9]: in the test on HIV-1, the “Anti-HIV activity (EC50)” value is “No Anti-HIV” and the anti-HIV activity entry is on record as “no anti-HIV activity”.
Regarding `CC[C@H](C)[C@H](NC(=O)CNC(=O)[C@H](CCC(N)=O)NC(=O)[C@@H]1CCCN1C(=O)[C@H](CC(=O)O)NC(=O)[C@H](CCCNC(=N)N)NC(=O)[C@@H](NC(=O)[C@@H](NC(=O)[C@@H](N)CCCNC(=N)N)C(C)C)C(C)C)C(=O)N[C@@H](CCCNC(=N)N)C(=O)N[C@@H](C)C(=O)N[C@@H](Cc1c[nH]c2ccccc12)C(=O)N[C@H](C(=O)N[C@@H](C)C(=O)N[C@@H](Cc1c[nH]c2ccccc12)C(=O)N[C@@H](CCCNC(=N)N)C(=O)N[C@@H](CC(N)=O)C(=O)N[C@@H](CCCNC(=N)N)C(=O)O)C(C)C` [HL18, RVVRDPQGIRAWVAWRNR] (H-RVVRDPQGIRAWVAWRNR-OH; N-terminus and C-terminus assumed), the EC50 came to 56 nM in test [1] and 58 nM in the test on HIV-1 (24 h).
As for RAWVAYRNR [HL9 (W112→Y)], the “Anti-HIV activity (EC50)” value with HIV-1 is reported as “No Anti-HIV”.
`CC(C)[C@H](NC(=O)[C@H](Cc1c[nH]c2ccccc12)NC(=O)[C@H](C)NC(=O)[C@@H](N)CCCNC(=N)N)C(=O)N[C@@H](C)C(=O)N[C@@H](Cc1c[nH]c2ccccc12)C(=O)N[C@@H](CCCNC(=N)N)C(=O)N[C@@H](CC(N)=O)C(=O)N[C@@H](CCCCN)C(=O)O` [HL9 (R115→K), RAWVAWRNK] (H-RAWVAWRNK-OH): the EC50 with HIV-1 (24 h) is > 100000 nM.
Consider RAYVAWRNR [HL9 (W109→Y)], for which the “Anti-HIV activity (EC50)” value with HIV-1 is listed as “No Anti-HIV”.
As for RVVRDPQGIRAYVAWRNR [HL18 (W109-Y)], in the test on HIV-1, the “Anti-HIV activity (EC50)” value was “No Anti-HIV”.
As for `CC(C)[C@H](NC(=O)[C@H](Cc1c[nH]c2ccccc12)NC(=O)[C@H](C)NC(=O)[C@@H](N)CCCNC(=N)N)C(=O)N[C@@H](C)C(=O)N[C@@H](Cc1c[nH]c2ccccc12)C(=O)N[C@@H](CCCCN)C(=O)N[C@@H](CC(N)=O)C(=O)N[C@@H](CCCNC(=N)N)C(=O)O` [HL9 (R113→K), RAWVAWKNR] (H-RAWVAWKNR-OH), the EC50 in the test with HIV-1 (24 h) is > 100000 nM.
As for `CC(C)[C@H](NC(=O)[C@H](Cc1c[nH]c2ccccc12)NC(=O)[C@H](C)NC(=O)[C@@H](N)CC(N)=O)C(=O)N[C@@H](C)C(=O)N[C@@H](Cc1c[nH]c2ccccc12)C(=O)N[C@@H](CCCNC(=N)N)C(=O)N[C@@H](CC(N)=O)C(=O)N[C@@H](CCCNC(=N)N)C(=O)O` [HL9 (R107→N), NAWVAWRNR] (H-NAWVAWRNR-OH), in the test with HIV-1 (24 h), the EC50 was > 100000 nM.
With `CC(C)[C@H](NC(=O)[C@H](Cc1c[nH]c2ccccc12)NC(=O)[C@H](C)NC(=O)[C@@H](N)CCCNC(=N)N)C(=O)N[C@@H](C)C(=O)N[C@@H](Cc1c[nH]c2ccccc12)C(=O)N[C@@H](CCCNC(=N)N)C(=O)N[C@@H](CC(N)=O)C(=O)N[C@@H](CCCNC(=N)N)C(=O)O` [HL9, RAWVAWRNR] (H-RAWVAWRNR-OH), the EC50 in test [1] is 48 nM.
